From patent US20070167412A1, “HALOCOMBSTATINS AND METHODS OF SYNTHESIS THEREOF” (ARIZONA BOARD OF REGENTS, priority 2003, published 2007)
≈ marks a conversion by molar mass, not a printed value.

Tests used:
[1] = tested on: Enterococcus faecalis; experiment: reference broth microdilution susceptibility assay; assay type: cell-based; conditions: Table III
Summary of the method: (§1)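 Susceptibility was tested by the reference broth microdilution method. Bacterial strains followed the NCCLS standard for aerobically growing bacteria (M7-A5), and yeasts followed the NCCLS broth dilution reference method for yeasts (M27-A).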

[2] = tested on: Streptococcus pneumoniae; experiment: reference broth microdilution susceptibility assay; assay type: cell-based; conditions: Table III
Summary of the method: as §1

[3] = tested on: Cryptococcus neoformans; experiment: reference broth microdilution susceptibility assay; assay type: cell-based; conditions: Table III
Summary of the method: (§2)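 Broth microdilution, NCCLS reference protocols: M7-A5 for M. luteus and E. coli; M27-A for C. neoformans and C. albicans.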

[4] = tested on: Enterobacter cloacae; experiment: reference broth microdilution susceptibility assay; assay type: cell-based; conditions: Table III
Summary of the method: as §1

[5] = tested on: Micrococcus luteus; experiment: reference broth microdilution susceptibility assay; assay type: cell-based; conditions: Table III
Summary of the method: as §2

[6] = tested on: Stenotrophomonas maltophilia; experiment: reference broth microdilution susceptibility assay; assay type: cell-based; conditions: Table III
Summary of the method: as §1

[7] = tested on: Staphylococcus aureus; experiment: reference broth microdilution susceptibility assay; assay type: cell-based; conditions: Table III
Summary of the method: as §1

[8] = tested on: Neisseria gonorrhoeae; experiment: reference broth microdilution susceptibility assay; assay type: cell-based; conditions: Table III
Summary of the method: as §1

[9] = tested on: Escherichia coli; experiment: reference broth microdilution susceptibility assay; assay type: cell-based; conditions: Table III
Summary of the method: as §2

[10] = tested on: Candida albicans; experiment: reference broth microdilution susceptibility assay; assay type: cell-based; conditions: Table III
Summary of the method: as §2

[11] = tested on: human umbilical vein endothelial cells (HUVEC); experiment: Matrigel cord formation assay; assay type: cell-based; design: key: −: No Junctions; +: Few; ++: ˜50% of Control; +++: Same as Control; conditions: 24 hours, compared to untreated controls
Experimental: In vitro Matrigel antiangiogenesis assays were implemented according to the Developmental Therapeutics Program NCI/NIH protocols known to one of skill in the art. Matrigel, a basement membrane matrix, was obtained from BD Biosciences. Growth inhibition and cord formation assays were Conducted using human umbilical vein endothelial cells obtained from GlycoTeCh. HUVEC cells were grown in EGM-2 medium.
An aliquot of sixty microliters was placed in each well of an ice-cold 96-well plate. The plates were then left for 15 minutes at room temperature, then incubated for 30 minutes at 37° C. to permit the matrigel to polymerize. Meanwhile, HUVEC cells were harvested and diluted to a concentration of 2×10^5 cells/ml. A solution of 100 μL containing the compounds to be tested was added next. After 24 hours incubation, pictures were taken for each concentration using an inverted Nikon Diaphot microscope and D100 digital camera. Drug effect was assessed, compared to untreated controls, by measuring the length of cords formed and number ofjunctions.

[12] = tested on: human umbilical vein endothelial cells (HUVEC); experiment: Matrigel cord formation assay; assay type: cell-based; design: key to Lengths of Cords: −: No Cords; +: Small; ++: ˜50% of Control; +++: Same as Control; conditions: 24 hours, compared to untreated controls
Summary of the method: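 HUVEC grown in EGM-2, seeded at 2×10^5 cells/ml onto polymerized Matrigel with test compounds. After 24 hours, cord length and junction number imaged and measured relative to untreated controls.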

[13] = tested on: KAT-4; experiment: human anaplastic thyroid carcinoma cell line inhibition; assay type: cell-based; conditions: Homo sapiens, KAT-4
Experimental: (§3) Inhibition of human cancer cell growth was assessed using the National Cancer Institute's standard sulforhodamine B assay. After 48 hours, the plates were fixed with trichloracetic acid, stained with sulforhodamine B and read with an automated microplate reader. A growth inhibition of 50% (GI50 or the drug concentration causing a 50% reduction in the net protein increase) was calculated from optical density data with Inmunosoft software. Inhibition of the mouse leukemia P388 cells was assessed in a 10% horse serum/Fisher medium soution for 24 hours, followed by a 48 hour incubation with serial dilutions of the compounds. Cell growth inhibition (ED50) was then calculated using a Z1 Becleman/Coulter particle counter.

[14] = tested on: SW1736; experiment: as above; assay type: cell-based; conditions: Homo sapiens, SW-1736
Experimental: as §3

[15] = tested on: T1, purified tubulin; experiment: inhibition of tubulin polymerization (turbidimetry); assay type: biochemical; conditions: 10 μM tubulin, GTP 0.4 mM, 30° C., extent after 20 minutes; read-out: Inhibition of polymerization IC50 ± S.D.
T1 construct: other: 10 μM tubulin, GTP 0.4 mM, 30° C., extent after 20 minutes
Summary of the method: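 Drug at varying concentrations preincubated with 10 μM […] purified tubulin, chilled on ice, then 0.4 mM GTP added and polymerization followed at 30 °C by turbidity at 350 nm. Extent of reaction after 20 min was the measured parameter.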

[16] = tested on: tubulin; experiment: inhibition of [3H]colchicine binding to tubulin; conditions: 1.0 μM tubulin, 5.0 μM [3H]colchicine, inhibitor at 1.0 μM, 10 minutes at 37° C.
Summary of the method: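 Reaction mixtures held 1.0 μM tubulin, 5.0 μM [3H]colchicine and inhibitor at 1.0 μM, incubated 10 minutes at 37° C. The value reflects inhibition of radiolabelled colchicine binding.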

## COc1ccc(/C=C\c2cc(I)c(OC)c(OC)c2)cc1O [Compound 14a, 3-Iodo-4,4′,5-trimethoxy-3′-hydroxy-z-stilbene]
[1]
  Range of minimum inhibitory concentration, Enterococcus faecalis: * (no inhibition at 64 μg/ml)
[2]
  Range of minimum inhibitory concentration, Streptococcus pneumoniae: 64 µg/mL
[3]
  Range of minimum inhibitory concentration, Cryptococcus neoformans: 32 to 64 µg/mL
[4]
  Range of minimum inhibitory concentration, Enterobacter cloacae: * (no inhibition at 64 μg/ml)
[5]
  Range of minimum inhibitory concentration, Micrococcus luteus: 16 to 32 µg/mL
[6]
  Range of minimum inhibitory concentration, Stenotrophomonas maltophilia: * (no inhibition at 64 μg/ml)
[7]
  Range of minimum inhibitory concentration, Staphylococcus aureus: * (no inhibition at 64 μg/ml)
[8]
  Range of minimum inhibitory concentration, Neisseria gonorrhoeae: 16 to 32 µg/mL
[9]
  Range of minimum inhibitory concentration, Escherichia coli: * (no inhibition at 64 μg/ml)
[10]
  Range of minimum inhibitory concentration, Candida albicans: * (no inhibition at 64 μg/ml)
[11]; 0.001 μg/ml
  Number of junctions: +
[11]; 0.01 μg/ml
  Number of junctions: −
[12]; 0.001 μg/ml
  Lengths of Cords: +
[12]; 0.01 μg/ml
  Lengths of Cords: −
[13]
  GI50: 0.089 to 0.14 µg/mL (≈ 0.216 to 0.34 µM)
[14]
  GI50: 2.2 µg/mL (≈ 5.34 µM)
[15]
  IC50: 1.6 ± 0.2 µM
[16]
  Inhibition of colchicine binding % inhibition ± S.D.: 84 ± 7%
